According to the Kinase Knowledgebase extract (Sharma et al. 2016):

Target: EGFR (UniProt P00533)
Sequence (P00533 whole entry, looked up): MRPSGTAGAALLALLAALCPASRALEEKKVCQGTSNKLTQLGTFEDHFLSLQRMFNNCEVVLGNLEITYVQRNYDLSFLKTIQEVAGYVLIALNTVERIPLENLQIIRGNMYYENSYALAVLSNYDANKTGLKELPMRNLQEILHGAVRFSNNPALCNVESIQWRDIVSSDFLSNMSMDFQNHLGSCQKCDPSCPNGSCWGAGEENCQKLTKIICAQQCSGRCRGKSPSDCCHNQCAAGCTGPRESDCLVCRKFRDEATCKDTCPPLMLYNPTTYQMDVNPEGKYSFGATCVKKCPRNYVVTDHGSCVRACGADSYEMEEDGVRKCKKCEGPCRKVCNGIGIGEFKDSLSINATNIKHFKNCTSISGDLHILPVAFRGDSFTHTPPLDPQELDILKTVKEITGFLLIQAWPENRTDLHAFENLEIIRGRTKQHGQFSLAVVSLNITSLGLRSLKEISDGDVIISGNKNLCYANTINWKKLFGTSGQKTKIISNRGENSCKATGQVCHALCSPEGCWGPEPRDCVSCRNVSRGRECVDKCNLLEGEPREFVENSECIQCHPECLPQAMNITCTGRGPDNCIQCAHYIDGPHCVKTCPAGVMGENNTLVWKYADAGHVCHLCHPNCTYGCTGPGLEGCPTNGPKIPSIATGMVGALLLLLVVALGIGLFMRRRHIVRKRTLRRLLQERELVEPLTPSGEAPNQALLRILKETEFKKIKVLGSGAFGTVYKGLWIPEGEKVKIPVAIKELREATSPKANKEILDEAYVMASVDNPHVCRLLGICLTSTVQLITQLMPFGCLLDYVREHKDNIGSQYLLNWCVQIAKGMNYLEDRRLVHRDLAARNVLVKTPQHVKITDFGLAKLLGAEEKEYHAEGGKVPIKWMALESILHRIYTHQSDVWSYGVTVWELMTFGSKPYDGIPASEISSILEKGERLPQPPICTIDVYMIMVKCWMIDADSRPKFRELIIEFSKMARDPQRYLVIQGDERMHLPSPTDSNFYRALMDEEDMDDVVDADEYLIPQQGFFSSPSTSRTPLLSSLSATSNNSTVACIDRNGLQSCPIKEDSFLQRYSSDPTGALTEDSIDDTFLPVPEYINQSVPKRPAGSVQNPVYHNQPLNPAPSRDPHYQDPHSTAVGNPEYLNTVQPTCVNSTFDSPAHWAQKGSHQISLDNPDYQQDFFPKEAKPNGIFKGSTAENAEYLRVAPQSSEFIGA

Compound | IC50
C=CC(=O)NCCCNc1cc2c(Nc3ccc(F)c(F)c3F)ncnc2cc1OCC1CCN(C)CC1 | 12 nM
C=CC(=O)Nc1cc2c(Nc3ccc(Br)cc3F)ncnc2cc1OCCNC(=O)CCC | 32 nM
C=CC(=O)Nc1cc2c(Nc3ccc(Br)cc3F)ncnc2cc1OCCOC(=O)CC(=O)O | 956 nM
C=CC(=O)Nc1cc2c(Nc3ccc(Br)cc3F)ncnc2cc1OCCNC(=O)CC(C)N(C)C (stereo not given) | 325 nM
C=CC(=O)Nc1cc2c(Nc3ccc(Br)c(Cl)c3F)ncnc2cc1OCCNC(=O)CCCN(C)C | 28 nM
C=CC(=O)Nc1cc2c(Nc3ccc(Br)c(F)c3F)ncnc2cc1OCCNC(=O)CCCN(C)C | 568 nM
C=CC(=O)Nc1cc2c(Nc3ccc(Br)cc3F)ncnc2cc1OCC(=O)NCCN(C)C | 652 nM
C=CC(=O)NCCCNc1cc2c(Nc3ccc(Br)cc3F)ncnc2cc1OCC1CCN(C(=O)C=C)CC1 | 68 nM
C=CC(=O)Nc1cc2c(Nc3ccc(Br)cc3F)ncnc2cc1OCCOC(=O)CC(=O)OCC | 246 nM
C=CC(=O)NCCCNc1cc2c(Nc3ccc(Br)cc3F)ncnc2cc1OCC1CCN(C(=O)CC)CC1 | 56 nM
C=CC(=O)NCCNc1cc2c(Nc3ccc(Br)cc3F)ncnc2cc1OCC1CCN(C)CC1 | 76 nM
C=CC(=O)NCCC(=O)Nc1cc2c(Nc3ccc(Br)cc3F)ncnc2cc1OCC1CCN(C)CC1 | 80 nM
C=CC(=O)NCCCNc1cc2c(Nc3ccc(Br)cc3F)ncnc2cc1OCC1CCN(C)CC1 | 11 nM
C=CC(=O)NCCCNc1cc2c(Nc3ccc(Br)cc3F)ncnc2cc1OCC1CCN(C(C)=O)CC1 | 35 nM
C=CC(=O)Nc1cc2c(Nc3ccc(Br)cc3F)ncnc2cc1OCCNC(=O)CCCN(C)C | 21 nM
